{"source": "paper PMC10591956", "about": "(Journal of controlled release : official journal of the …, 2023)", "origin": "cited, not measured here", "test_system": "intraocular pressure (IOP)", "conditions": "single intracameral injection, normotensive rabbits", "data": [{"molecule": "Brc1c(NC2=NCCN2)ccc2nccnc12", "note": "[brimonidine]", "values": [{"measurement": "duration of IOP reduction", "value": 7, "unit": "days"}]}]}
